Source: US7534818B1 (priority 2003, dated 2009)

Key:
rats = conditions: days 30 and 45 after cyclophosphamide 100 mg/kg i.v.×1; MSC 0.75 mg/rat/d×21, first dose 14 days before; FIG. 4
Description: Regrowth of hair was assessed at 30, 45 and 90 days post initiation of cyciophosphamide treatment.

[1] = tested on: human squamous cell carcinoma of head and neck tumor xenografts (A253); experiment: Anti-tumor activity in A253 xenografts; format: in vivo; conditions: A253 xenografts in nude mice; cyclophosphamide 100 mg/kg×1, i.v., alone or in combination with MSC
rat bladder = conditions: MSC 0.75 mg/rat/d orally; for bladder histology (hemorrhage): 24 hrs after cyclophosphamide 150 mg/kg×1 i.v., first dose 14 days before, hematoxylin-eosin sections, FIG. 2
Excerpt: Bladders were removed and fixed in formalin. Paraffin embedded sections were obtained and stained by hematoxylin-eosin staining by standard methods.

normal rats = experiment: Identification of non-toxic doses of MSC (survival, weight loss) in normal rats; format: in vivo, adult Fisher rats; conditions: for animals surviving treatment: 21 days
Description: This example describes the identification of non-toxic doses for the use of selenium. To illustrate this embodiment, different groups of adult Fisher rats were administered various doses of selenium for 21 days and survival of rats was monitored. Each group had 6 rats and each exempt group was repeated 3-4 times. […] Thus, for evaluation of the protective effect of MSC against chemotherapy induced toxicity, the dose and schedule of MSC used was 0.75 mg/rat/d up to 21 days orally.
Bladders were removed and fixed in formalin.

[2] = up to 0.75 mg/rat/d×21 MSC, adult Fisher rats

SMILES	regrowth of hair (alopecia) (rats)	Tumor growth inhibition [1]	bladder mucosal edema (rat bladder; 4 hrs after cyclophosphamide 150 mg/kg×1 i.v., FIG. 3)	bladder histology (hemorrhage) (rat bladder)	weight loss (normal rats; 0.75 mg/rat/d MSC orally up to 21 days, Fisher rats 120-180 g, stated as less than 10% of total body weight)	animals surviving treatment (normal rats; 1 mg MSC dose, adult Fisher rats)	animals surviving treatment (normal rats; 1.25 mg MSC dose, adult Fisher rats)	lethality (normal rats; [2])	toxicity (normal rats; [2])	weight loss (normal rats; [2])
O=P1(N(CCCl)CCCl)NCCCO1 (centres unmarked) [cyclophosphamide]	only partial recovery	35%	acute mucosal edema	severe hemorrhagic cystitis	–	–	–	–	–	–
C[Se]C[C@H](N)C(=O)O [MSC, 5-methylselenocysteine]	–	–	–	no change	7.4±2.4	75%	0%	no lethality	not toxic	less than 5%
